Values of other authors in patent US5164490A, “Pneumocystis carinii dihydrofolate reductase gene and methods for its use” (The Regents of the University of California, priority 1989, dated 1992).

Test system: P. carinii
Conditions: trimethoprim alone

COc1cc(Cc2cnc(N)nc2N)cc(OC)c1OC [trimethoprim]
efficacy in the rat model of P. carinii infection: lack of efficacy
